Experimental data from PMC4519859, “Synthesis and Biological Evaluation of Novel Dehydroabietic Acid Derivatives Conjugated with Acyl-Thiourea Peptide Moiety as Antitumor Agents” (International Journal of Molecular Sciences, 2015).

Tests used:
[1] = system: MGC-803; test: MTT cytotoxicity assay, MGC-803; assay type: cell-based; settings: Homo sapiens, 48 h, mean ± SD, three independent experiments
Description: (§1) The in vitro cytotoxic potency of DHAA acyl-thiourea derivatives 8a–8o and 9a–9o were evaluated by 3-(4,5-dimethylthiazol-2-yl)-2,5-diphenyltetrazolium bromide (MTT) assay against HeLa, SK-OV-3 and MGC-803 tumor cell lines, with 5-FU as the positive control.
(§2) General procedure for cytotoxic evaluation in vitro: HeLa, HepG2, SK-OV-3 and MGC-803 cells were seeded into 96-well microculture plates and allowed to adhere for 24 h, respectively. After cells were exposed to compounds at concentrations from 100 to 0.01 μM for 48 h, medium was aspirated and replenished with complete medium. IC50 was evaluated by MTT tetrazolium dye assay. Each experiment was performed three times; Statistical analysis: All statistical analysis was performed with SPSS Version 10 (SPSS, Chicago, IL, USA). Data was analyzed by one-way ANOVA. Mean separations were performed using the least significant difference method. Each experiment was replicated thrice, and all experiments yielded similar results. Measurements from all the replicates were combined, and treatment effects were analyzed.

[2] = system: HL-7702; test: MTT cytotoxicity assay, HL-7702 normal cells; assay type: cell-based; settings: L02, 48 h, normal human cells, mean ± SD, three independent experiments
Description: [The source words this procedure for another cell line and reports this cell line under the same test.] as §1, §2

[3] = system: HeLa cells; test: AO/EB staining; assay type: cell-based, human; settings: 10 μM, 12 and 24 h
Description: The cytotoxicity of compound 9n at a concentration of 10 μM against HeLa cells from 12 to 24 h was detected by AO/EB staining, and Hela cells not treated with the 9n were used as control for 48 h. […] Also due to the AO uptake, control cells appeared green while 9n treated cells appeared green to intense green as apoptotic cells had much more permeable membranes.
Cells were seeded at a concentration of 5 × 10^4 cell/ mL in a volume of 2 mL on a sterile cover slip in six-well tissue culture plates. Following incubation, the medium was removed and replaced with fresh medium plus 10% fetal bovine serum and supplemented with compound 9n (15 μM). After the treatment period, the cover slip with monolayer cells was inverted on a glass slide with 20 μL of AO/EB stain (100 mg/mL). Fluorescence was read on a slide with 20 μL of AO/EB stain (100 mg/mL) using a Nikon ECLIPSETE2000-S fluorescence microscope ([…], Tokyo, Japan).

[4] = system: HeLa cells; test: JC-1 mitochondrial membrane potential staining; assay type: cell-based, human; settings: 10 μM, 12 and 24 h
From the text: Apoptosis plays an important role in cancer, since its induction in tumor cells is essential for successful treatment. Mitochondria play key roles in apoptosis through the release of pro-apoptotic factors such as cytochrome c and apoptosis-inducing factor [19, 20]. In order to further investigate the apoptosis-inducing effect of target compound 9n, mitochondrial membrane potential changes were designed and detected, using the fluorescent probe JC-1. […] In the control cells, JC-1 could aggregate in mitochondria and present high red fluorescence. However, in cells undergoing apoptosis, where the mitochondrial potential has collapsed, JC-1 exists in the cytosol as a monomer that emits green fluorescence. HeLa cells treated with compound 9n at 10 μM from 12 to 24 h were stained with JC-1 and cells not treated with the compound 9n were used as control for 24 h. […]
General procedure for mitochondrial membrane potential staining: JC-1 probe was employed to measure mitochondrial depolarization in […]. […] Mitochondrial membrane potentials were monitored by determining the relative amounts of dual emissions from mitochondrial JC-1 monomers or aggregates using an Nikon ECLIPSETE2000-S fluorescent microscope. Mitochondrial depolarization is indicated by an increase in the green/red fluorescence intensity ratio.

[5] = system: HeLa cells; test: Cell cycle distribution by PI flow cytometry; assay type: cell-based, human; settings: 10, 15 μM, 48 h
Description: Many anticancer drugs interact with cells leading to cell growth arrest. To determine the possible role of cell cycle arrest in DHAA derivative induced growth inhibition, HeLa cells were treated with different concentrations of compound 9n. Cell cycle distribution was investigated by flow cytometric analysis after staining of the DNA with propidium iodide (PI).
General procedure cell cycle: HeLa cells were maintained in Dulbecco’s modified Eagle’s medium with 10% fetal calf serum in 5% CO2 at 37 °C. Cells were harvested by trypsinization and rinsed with PBS. After centrifugation, the pellet (10^5–10^6 cells) was suspended in 1 mL of PBS and kept on ice for 5 min. The cell suspension was then fixed by the drop-wise addition of 9 mL precooled (4 °C) 75% ethanol with violent shaking. Fixed samples were kept at 4 °C until use. For staining, cells were centrifuged, resuspended in PBS, digested with 500 μL of RNase A (250 mg/mL), and treated with 25 μL of propidium iodide (PI) (0.15 mM), then incubated for 30 min at 4 °C. PI-positive cells were counted with a FACScan Fluorescence-activated cell sorter (FACS). The population of cells in each cell-cycle phase was determined using Cell Modi FIT software (Becton Dickinson).

[6] = system: HeLa cells; test: Intracellular Ca2+ release (Fluo-3/AM); assay type: cell-based, human; settings: 10 μM, 24 h
From the text: Mitochondria have also been implicated as a source of ROS during apoptosis. […] We herein studied whether the loss of mitochondrial transmembrane potential resulting in the generation of ROS measured as described in our previous papers , using the fluorescent probe 2,7-dichlorofluorescein diacetate (DCF-DA) determined by fluorescence microscopy. […] Calcium has long been recognized as a significant participant in cell apoptosis. Therefore, we investigated whether compound 9n inducing cell death was involved in the production of Ca^2+. To investigate the effect of compound 9n on calcium release, HeLa cells treated with compound 9n at 10 μM for 24 h were loaded with the Ca^2+ indicator Fluo-3-acetoxymethyl-ester (Fluo-3/AM, 5 µM; Beyotime, Jiangsu, China).

[7] = system: caspase-3; test: Caspase-3 activation assay; assay type: cell-based, human; settings: HeLa, versus control, 3 to 24 h
From the text: It is well known that an increase of intracellular ROS can lead to apoptosis. […] Caspases are a family of cysteinyl aspartate specific proteases involved in apoptosis and are dichotomized to groups of initiators (caspases 8, 9 and 10) and executioners (caspases 3, 6 and 7). Caspase-3 is able to directly degrade multiple substrates including structural and regulatory proteins. Some small molecules have been developed to be selective activators of Caspase-3 [30]. Thus, we investigated whether caspase-3 was activated when HeLa cells were exposed to compound 9n.

Compound: CC(C)c1ccc2c(c1)CCC1[C@](C)(C(=O)NC(=S)N[C@H](Cc3ccccc3)C(=O)Nc3ccccn3)CCC[C@]21C (stereo partly drawn) [Compound 9n, (1R,4aS)-7-Isopropyl-1,4a-dimethyl-N-(((R)-1-oxo-3-phenyl-1-(pyridin-2-ylamino)propan-2-yl)carbamothioyl)-1,2,3,4,4a,9,10,10a-octahydrophenanthrene-1-carboxamide]
- IC50 [1]: 16.9 ± 1.56 µM
- IC50 [2]: 39.6 ± 1.47 µM
- apoptosis by AO/EB staining [3]: obvious apoptotic characters
- mitochondrial membrane potential change (JC-1) [4]: strong green fluorescence
- cell cycle arrest [5]: mainly arrested HeLa cells in the S stage
- intracellular Ca2+ release [6]: stronger green fluorescence
- caspase-3 activity [7]: significant increase in the activity of caspase-3
